{"source": "ChEMBL document CHEMBL1147987", "about": "“Novel aminoethylbiphenyls as 5-HT7 receptor ligands” (Bioorg Med Chem Lett, 2007)", "key": {"[1]": {"molecular_target": "T1, 5-hydroxytryptamine receptor 7 (Homo sapiens, UniProt P34969)", "T1 sequence (P34969 whole entry)": "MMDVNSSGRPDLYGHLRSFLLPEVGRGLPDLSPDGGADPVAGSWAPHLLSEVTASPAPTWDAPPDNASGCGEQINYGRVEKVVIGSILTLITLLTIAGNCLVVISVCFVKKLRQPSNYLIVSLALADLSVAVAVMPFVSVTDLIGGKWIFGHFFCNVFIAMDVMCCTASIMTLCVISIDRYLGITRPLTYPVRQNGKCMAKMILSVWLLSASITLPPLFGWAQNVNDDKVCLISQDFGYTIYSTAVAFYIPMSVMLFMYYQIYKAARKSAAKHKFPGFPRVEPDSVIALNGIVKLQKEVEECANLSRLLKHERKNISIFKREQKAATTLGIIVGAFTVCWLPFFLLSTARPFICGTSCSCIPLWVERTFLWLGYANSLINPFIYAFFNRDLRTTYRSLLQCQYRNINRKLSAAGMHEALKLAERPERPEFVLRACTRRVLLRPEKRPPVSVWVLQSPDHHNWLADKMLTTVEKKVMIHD", "assay": "Displacement of [3H]LSD from human 5HT7 in sf9 cells at 1 uM", "assay_type": "cell-based"}, "[2]": {"molecular_target": "T1, 5-hydroxytryptamine receptor 7", "assay": "Displacement of [3H]LSD from human 5HT7 in sf9 cells at 0.01 uM", "assay_type": "cell-based"}, "[3]": {"molecular_target": "T2, 5-hydroxytryptamine receptor 1A (Rattus norvegicus) (UniProt P19327)", "T2 sequence (whole entry)": "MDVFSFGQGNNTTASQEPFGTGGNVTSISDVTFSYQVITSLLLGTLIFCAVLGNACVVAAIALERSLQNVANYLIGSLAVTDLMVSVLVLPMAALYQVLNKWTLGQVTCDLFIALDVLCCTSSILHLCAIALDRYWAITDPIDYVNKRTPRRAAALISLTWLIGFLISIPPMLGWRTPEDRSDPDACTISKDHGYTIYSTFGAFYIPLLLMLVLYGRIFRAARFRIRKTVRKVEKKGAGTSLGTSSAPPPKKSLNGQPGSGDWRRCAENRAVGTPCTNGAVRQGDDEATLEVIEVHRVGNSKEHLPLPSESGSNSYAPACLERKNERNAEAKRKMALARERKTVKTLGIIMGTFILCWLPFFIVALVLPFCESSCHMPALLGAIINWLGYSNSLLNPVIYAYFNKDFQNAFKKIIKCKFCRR", "assay": "Binding affinity to rat 5HT1A at 1 uM"}, "[4]": {"molecular_target": "T2, 5-hydroxytryptamine receptor 1A (Rattus norvegicus)", "assay": "Binding affinity to rat 5HT1A at 0.01 uM"}, "[5]": {"assay": "Selectivity ratio of rat 5HT1A to human 5HT7"}, "[6]": {"molecular_target": "T1, 5-hydroxytryptamine receptor 7", "assay": "Displacement of [3H]LSD from human 5HT7 in sf9 cells", "assay_type": "cell-based"}, "[7]": {"molecular_target": "T3, 5-hydroxytryptamine receptor 1A (Rattus norvegicus, UniProt P19327)", "T3 sequence (P19327 whole entry)": "T2 sequence (whole entry)", "assay": "Binding affinity to rat 5HT1A"}, "[8]": {"molecular_target": "5-hydroxytryptamine receptor 7 (Rattus norvegicus) (UniProt P32305)", "sequence (P32305 whole entry)": "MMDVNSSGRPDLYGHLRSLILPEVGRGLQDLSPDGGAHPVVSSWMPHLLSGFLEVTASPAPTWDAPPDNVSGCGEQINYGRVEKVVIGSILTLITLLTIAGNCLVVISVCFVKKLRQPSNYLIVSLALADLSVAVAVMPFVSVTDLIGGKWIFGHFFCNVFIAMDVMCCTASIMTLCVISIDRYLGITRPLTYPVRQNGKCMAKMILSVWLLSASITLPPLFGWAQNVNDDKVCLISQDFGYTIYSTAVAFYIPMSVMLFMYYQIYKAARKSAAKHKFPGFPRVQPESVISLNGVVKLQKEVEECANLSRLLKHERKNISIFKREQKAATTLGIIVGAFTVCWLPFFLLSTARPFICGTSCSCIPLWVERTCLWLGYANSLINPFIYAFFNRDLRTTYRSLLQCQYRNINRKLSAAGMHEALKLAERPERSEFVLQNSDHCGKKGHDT", "assay": "Antagonist activity at 5HT7 receptor stimulated aldosterone secretion from rat adrenal cortex", "assay_type": "functional, tissue-based"}}}
{"smiles": "Cc1cccc(C)c1-c1cccc(CCN(C)C)c1", "values": [{"measurement": "inhibition", "setting": "[1]", "result": 93, "unit": "%"}, {"measurement": "inhibition", "setting": "[2]", "result": 73, "unit": "%"}, {"measurement": "inhibition", "setting": "[3]", "result": 33, "unit": "%"}, {"measurement": "inhibition", "setting": "[4]", "result": 6, "unit": "%"}, {"measurement": "Ratio Ki", "setting": "[5]", "result": 60}, {"measurement": "Ki", "setting": "[6]", "result": 6.2, "unit": "nM"}, {"measurement": "Ki", "setting": "[7]", "result": 2250, "unit": "nM"}]}
{"smiles": "Cc1ccccc1-n1ccc(CCN(C)C)c1", "values": [{"measurement": "inhibition", "setting": "[1]", "result": 87, "unit": "%"}, {"measurement": "inhibition", "setting": "[2]", "result": 16, "unit": "%"}, {"measurement": "inhibition", "setting": "[3]", "result": 41, "unit": "%"}, {"measurement": "inhibition", "setting": "[4]", "result": 14, "unit": "%"}]}
{"smiles": "COc1ccccc1-c1cccc(CCN(C)C)c1", "values": [{"measurement": "inhibition", "setting": "[1]", "result": 69, "unit": "%"}, {"measurement": "inhibition", "setting": "[2]", "result": 23, "unit": "%"}, {"measurement": "inhibition", "setting": "[3]", "result": 48, "unit": "%"}, {"measurement": "inhibition", "setting": "[4]", "result": 12, "unit": "%"}, {"measurement": "Ki", "setting": "[6]", "result": 8.4, "unit": "nM"}, {"measurement": "Ki", "setting": "[7]", "result": 531, "unit": "nM"}]}
{"smiles": "COc1ccc(-c2cccc(CCN(C)C)c2)cc1OC", "values": [{"measurement": "inhibition", "setting": "[1]", "result": 38, "unit": "%"}, {"measurement": "inhibition", "setting": "[2]", "result": 0, "unit": "%"}, {"measurement": "inhibition", "setting": "[3]", "result": 52, "unit": "%"}, {"measurement": "inhibition", "setting": "[4]", "result": 12, "unit": "%"}]}
{"smiles": "CN(C)CCc1cccc(-c2cccs2)c1", "values": [{"measurement": "inhibition", "setting": "[1]", "result": 75, "unit": "%"}, {"measurement": "inhibition", "setting": "[2]", "result": 12, "unit": "%"}, {"measurement": "inhibition", "setting": "[3]", "result": 63, "unit": "%"}, {"measurement": "inhibition", "setting": "[4]", "result": 6, "unit": "%"}]}
{"smiles": "Cc1ccccc1-n1ccc(CCN)c1", "values": [{"measurement": "inhibition", "setting": "[1]", "result": 62, "unit": "%"}, {"measurement": "inhibition", "setting": "[2]", "result": 5, "unit": "%"}, {"measurement": "inhibition", "setting": "[3]", "result": 16, "unit": "%"}, {"measurement": "inhibition", "setting": "[4]", "result": 0, "unit": "%"}]}
{"smiles": "COc1ccc(-c2cccc(CCN(C)C)c2)cc1", "values": [{"measurement": "inhibition", "setting": "[1]", "result": 52, "unit": "%"}, {"measurement": "inhibition", "setting": "[2]", "result": 9, "unit": "%"}, {"measurement": "inhibition", "setting": "[3]", "result": 37, "unit": "%"}, {"measurement": "inhibition", "setting": "[4]", "result": 0, "unit": "%"}]}
{"smiles": "Cc1cc(C)c(-n2ccc(CCN(C)C)c2)c(C)c1", "values": [{"measurement": "inhibition", "setting": "[1]", "result": 56, "unit": "%"}, {"measurement": "inhibition", "setting": "[2]", "result": 3, "unit": "%"}, {"measurement": "inhibition", "setting": "[3]", "result": 20, "unit": "%"}, {"measurement": "inhibition", "setting": "[4]", "result": 0, "unit": "%"}]}
{"smiles": "CN(C)CCc1cccc(-c2ccccc2)c1", "values": [{"measurement": "inhibition", "setting": "[1]", "result": 70, "unit": "%"}, {"measurement": "inhibition", "setting": "[2]", "result": 18, "unit": "%"}, {"measurement": "inhibition", "setting": "[3]", "result": 18, "unit": "%"}, {"measurement": "inhibition", "setting": "[4]", "result": 2, "unit": "%"}]}
{"smiles": "Cc1cc(C)c(-n2ccc(CCN)c2)c(C)c1", "values": [{"measurement": "inhibition", "setting": "[1]", "result": 0, "unit": "%"}, {"measurement": "inhibition", "setting": "[2]", "result": 0, "unit": "%"}, {"measurement": "inhibition", "setting": "[3]", "result": 0, "unit": "%"}, {"measurement": "inhibition", "setting": "[4]", "result": 0, "unit": "%"}]}
{"smiles": "Cc1ccccc1-c1cccc(CCN)c1", "values": [{"measurement": "inhibition", "setting": "[1]", "result": 92, "unit": "%"}, {"measurement": "inhibition", "setting": "[2]", "result": 71, "unit": "%"}, {"measurement": "inhibition", "setting": "[3]", "result": 37, "unit": "%"}, {"measurement": "inhibition", "setting": "[4]", "result": 0, "unit": "%"}, {"measurement": "Ki", "setting": "[6]", "result": 7.5, "unit": "nM"}, {"measurement": "Ki", "setting": "[7]", "result": 1470, "unit": "nM"}]}
{"smiles": "COc1cccc(OC)c1-c1cccc(CCN2CCOCC2)c1", "values": [{"measurement": "inhibition", "setting": "[1]", "result": 9, "unit": "%"}, {"measurement": "inhibition", "setting": "[2]", "result": 0, "unit": "%"}, {"measurement": "inhibition", "setting": "[3]", "result": 14, "unit": "%"}, {"measurement": "inhibition", "setting": "[4]", "result": 7, "unit": "%"}]}
{"smiles": "Cc1cccc(-n2ccc(CCN)c2)c1C", "values": [{"measurement": "inhibition", "setting": "[1]", "result": 48, "unit": "%"}, {"measurement": "inhibition", "setting": "[2]", "result": 25, "unit": "%"}, {"measurement": "inhibition", "setting": "[3]", "result": 17, "unit": "%"}, {"measurement": "inhibition", "setting": "[4]", "result": 0, "unit": "%"}]}
{"smiles": "COc1cccc(OC)c1-c1cccc(CCN(C)C)c1", "values": [{"measurement": "inhibition", "setting": "[1]", "result": 100, "unit": "%"}, {"measurement": "inhibition", "setting": "[2]", "result": 50, "unit": "%"}, {"measurement": "inhibition", "setting": "[3]", "result": 18, "unit": "%"}, {"measurement": "inhibition", "setting": "[4]", "result": 3, "unit": "%"}, {"measurement": "Ratio Ki", "setting": "[5]", "result": 60}, {"measurement": "Ki", "setting": "[6]", "result": 8.6, "unit": "nM"}, {"measurement": "Ki", "setting": "[7]", "result": 4830, "unit": "nM"}, {"measurement": "Activity", "setting": "[8]; filed as partial agonist", "result": "Partial agonist"}]}
{"smiles": "CN(C)CCc1cccc(-c2ccsc2)c1", "values": [{"measurement": "inhibition", "setting": "[1]", "result": 87, "unit": "%"}, {"measurement": "inhibition", "setting": "[2]", "result": 12, "unit": "%"}, {"measurement": "inhibition", "setting": "[3]", "result": 64, "unit": "%"}, {"measurement": "inhibition", "setting": "[4]", "result": 20, "unit": "%"}]}
{"smiles": "Cc1ccccc1-c1cccc(CCN(C)C)c1", "values": [{"measurement": "inhibition", "setting": "[1]", "result": 81, "unit": "%"}, {"measurement": "inhibition", "setting": "[2]", "result": 72, "unit": "%"}, {"measurement": "inhibition", "setting": "[3]", "result": 85, "unit": "%"}, {"measurement": "inhibition", "setting": "[4]", "result": 1, "unit": "%"}, {"measurement": "Ki", "setting": "[6]", "result": 7.6, "unit": "nM"}, {"measurement": "Ki", "setting": "[7]", "result": 443, "unit": "nM"}, {"measurement": "pKb", "setting": "[8]", "result": 7.03}]}
